Data reported in patent US12377082B2, “Nicorandil derivatives” (priority 2019, dated 2025).

Assays:
[1] = Pharmacokinetics (PK) in dog, oral dosing; format: in vivo, Beagle dog
Description: Pharmacokinetics (PK) Protocol: Dog
0.5 ml blood was collected at each time point from the femoral vein via direct stick at defined time points. in tubes containing anticoagulant. […] Supernatant was kept for analysis. […] Quantitative analysis was done by liquid chromatography tandem mass spectrometer (API3000 LC-MS/MS).

[2] = Pharmacokinetics (PK) in rat, oral dosing, plasma levels of parent drug nicorandil; format: in vivo, SD rats
Description: Pharmacokinetics (PK) Protocol: Rat
The dosing vehicle used in this study was PEG400. 1, 3, 10 mg/kg oral dosing was done in overnight fasted SD rats and the parent drug generated was monitored. Also presence of modified drug was checked. After oral (PO) dosing blood was collected by serial bleeding at 8 different time points in heparinised tubes. […] Supernatant was kept for analysis. […] Quantitative analysis was done by liquid chromatography tandem mass spectrometer (API3000 LC-MS/MS).

[3] = Conversion of Compound A to nicorandil in rat plasma (FIG. 2); format: in vitro ADME; settings: various time points

C[C@H](NC(=O)OC[n+]1cccc(C(=O)NCCO[N+](=O)[O-])c1)C1CCCCC1 [Compound 8, (S)-1-(((1-cyclohexylethylcarbamoyl)oxy)methyl)-3-((2-(nitroxy)ethyl)carbamoyl)pyridine-1-ium iodide]
plasma exposure compared (AUC and Cmax) ([1]; 3 mg/kg oral): significantly higher | modified drug detected in plasma ([1]; oral): no modified drug was detected | plasma exposure (in words) ([1]; oral): excellent plasma exposure | dose linearity of plasma exposure ([2]; rat, 1, 3, 10 mg/kg oral): displayed dose linearity | modified drug detected in plasma ([2]; rat, oral): no modified drug was detected | plasma exposure (in words) ([2]; rat, oral): excellent plasma exposure | conversion to nicorandil [3]: Complete conversion to nicorandil
